According to ChEMBL document CHEMBL1201862, “PubChem BioAssay data set” (2004):
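Exposure lasted 48 hours, with cells grown in 96-well plates and compounds tested at five concentrations. At the GI50, growth is halved.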 Activity calls are given as the source filed them. Rule as the data show it: active = GI50 up to about 1.1 µM and inactive = higher.

Tests used:
Assay in all cases: inhibition of tumour cell growth, NCI panel, 48 h
[1] = test system: HT-29
[2] = test system: HCT-116
[3] = test system: SF-268
[4] = test system: HL-60
[5] = test system: MCF7
[6] = test system: TK-10
[7] = test system: HCT-15
[8] = test system: NCI-H522
[9] = test system: NCI-H23
[10] = test system: MDA-MB-231
[11] = test system: OVCAR-5
[12] = test system: T47D
[13] = test system: KM12
[14] = test system: CAKI-1
[15] = test system: SK-MEL-28
[16] = test system: SK-OV-3
[17] = test system: COLO 205
[18] = test system: SNB-19
[19] = test system: SW-620
[20] = test system: IGROV-1
[21] = test system: A498
[22] = test system: SK-MEL-2
[23] = test system: NCI-H226
[24] = test system: A549
[25] = test system: SK-MEL-5
[26] = test system: BT-549
[27] = test system: SF-539
[28] = test system: UACC-257
[29] = test system: UACC-62
[30] = test system: HOP-62
[31] = test system: UO-31
[32] = test system: CCRF-CEM
[33] = test system: SF-295
[34] = test system: SNB-75
[35] = test system: M14
[36] = test system: NCI/ADR-RES
[37] = test system: Malme-3M
[38] = test system: SR
[39] = test system: OVCAR-8
[40] = test system: HOP-92
[41] = test system: DU-145
[42] = test system: SN12C
[43] = test system: 786-0
[44] = test system: OVCAR-3
[45] = test system: LOX IMVI
[46] = test system: MDA-MB-435
[47] = test system: RPMI-8226
[48] = test system: K562
[49] = test system: Hs-578T
[50] = test system: NCI-H460
[51] = test system: U-251
[52] = test system: MOLT-4
[53] = test system: ACHN
[54] = test system: PC-3
[55] = test system: RXF 393
[56] = test system: OVCAR-4

`COc1cc2c(/C=C3/C(=O)Nc4ccc(Cl)cc43)c(Cl)n(Cc3ccccc3)c2cc1C` was tested, and the GI50 [1] was 8260 nM (inactive), the GI50 [2] was 3810 nM (inactive) and the GI50 [3] was 6190 nM (inactive). The GI50 [4] was 3930 nM (inactive), the GI50 [5] was 5000 nM (inactive) and the GI50 [6] was 1800 nM (inactive). The GI50 [7] was 4010 nM, the GI50 [8] was 3180 nM (inactive) and the GI50 [9] was 2840 nM (inactive). For the same molecule, the GI50 [10] was 2480 nM (inactive), the GI50 [11] was 2510 nM (inactive) and the GI50 [12] was 3170 nM (inactive). The GI50 [13] was 2330 nM (inactive), the GI50 [14] was 2970 nM (inactive) and the GI50 [15] was 2390 nM (inactive). The GI50 [16] was 1740 nM (inactive), the GI50 [17] was 2410 nM (inactive) and the GI50 [18] was 3100 nM (inactive). The GI50 [19] was 6730 nM (inactive), the GI50 [20] was 3290 nM (inactive) and the GI50 [21] was 2650 nM (inactive). For the same molecule, the GI50 [22] was 6210 nM (inactive), the GI50 [23] was 2810 nM (inactive) and the GI50 [24] was 3270 nM (inactive). For the same molecule, the GI50 [25] was 3320 nM (inactive), the GI50 [26] was 7850 nM (inactive) and the GI50 [27] was 2940 nM (inactive). The GI50 [28] was 6340 nM (inactive), the GI50 [29] was 3080 nM (inactive) and the GI50 [30] was 2110 nM (inactive). The GI50 [31] was 2510 nM (inactive), the GI50 [32] was 2890 nM (inactive) and the GI50 [33] was 2810 nM (inactive). The GI50 [34] was 2040 nM (inactive), the GI50 [35] was 4190 nM (inactive) and the GI50 [36] was 3860 nM (inactive). The GI50 [37] was 2220 nM (inactive), the GI50 [38] was 2720 nM (inactive) and the GI50 [39] was 2590 nM (inactive). The GI50 [40] was 5510 nM (inactive), the GI50 [41] was 3900 nM (inactive) and the GI50 [42] was 2590 nM (inactive). The GI50 [43] was 2590 nM (inactive), the GI50 [44] was 1980 nM (inactive) and the GI50 [45] was 3570 nM (inactive). For the same molecule, the GI50 [46] was 2430 nM (inactive), the GI50 [47] was 2510 nM (inactive) and the GI50 [48] was 3140 nM (inactive). For the same molecule, the GI50 [49] was 4560 nM (inactive), the GI50 [50] was 3300 nM (inactive) and the GI50 [51] was 2300 nM (inactive). For the same molecule, the GI50 [52] was 2260 nM (inactive), the GI50 [53] was 2410 nM (inactive) and the GI50 [54] was 5890 nM (inactive). The GI50 [55] was 2310 nM (inactive) and the GI50 [56] was 1950 nM (inactive).
